Experimental data as given in US6828350B1, “Modulators of cysteine protease” (Exegenics Inc., priority 1997, dated 2004).
Values joined by “and” are separate entries in the source; they are usually repeats but may differ in a detail not shown here. Equal values may be shown once. Read-outs that look alike come from different tables or passages of the source.

Experiments:
HRV 1A = experiment: Antiviral assay, XTT method, HRV 1A; type: cell-based
HRV 14 = experiment: Antiviral assay, XTT method, HRV 14; type: cell-based
HRV 16 = experiment: Antiviral assay, XTT method, HRV 16; type: cell-based
[1] = Cytotoxicity by XTT assay (treated, mock-infected cells); conditions: human, H1-HeLa cells (ATCC), mock-infected
Hl-Hela cells = experiment: as above; conditions: read-out: TC50; Format 1; concentration that retards cell growth by 50%, mock-infected Hl-Hela cells
HRV 1B = experiment: Antiviral assay, XTT method, HRV 1B; type: cell-based
Apopain (caspase-3) = target: T1, Apopain (caspase-3) (Homo sapiens, UniProt P42574); experiment: Apopain (Caspase-3) Regulation Assay (FluorAce Apopain Assay Kit); type: biochemical; conditions: Apopain modulation: Inhibitor or Activator
T1 construct: purchased Bio-rad FluorAce Apopain Assay Kit (booklet 4100119)
T1 sequence (P42574 29-175 limits assumed): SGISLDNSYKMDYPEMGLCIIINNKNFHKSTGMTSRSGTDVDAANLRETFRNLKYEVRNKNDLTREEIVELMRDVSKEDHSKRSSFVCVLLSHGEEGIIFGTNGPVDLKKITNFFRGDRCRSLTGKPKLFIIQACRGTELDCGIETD
T1 sequence (P42574 176-277 limits assumed): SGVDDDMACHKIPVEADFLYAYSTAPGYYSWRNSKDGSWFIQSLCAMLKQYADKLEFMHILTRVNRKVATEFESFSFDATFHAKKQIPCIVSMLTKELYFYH
Procedure: VI: Apopain (Caspase-3) Regulation Assay
The FluorAce™ Apopain Assay Kit (Bio-rad) was employed in multiwell format. Compounds assayed were diluted 5-fold in distilled water (from stock solutions in ethanol or DMSO) and centrifuged (5′, 14K rpm). 10 μL of the supernatant was further diluted in wells containing 100 μL distilled water and 40 μL 6×Buffer (41.7 mM PIPES, pH 7.4, 8.3 mM EDTA, 0.42% CHAPS, 20.8 mM DTT). This process was carried out twice to yield duplicate wells for each compound. Control wells were prepared by addition of EtOH and DMSO (5-fold diluted in distilled water) into wells containing 6×Buffer and distilled water (40 μL and 100 μL, respectively), to form 8 wells with each solvent. Enzyme (stock solution 10-fold diluted in distilled water, see Bio-rad booklet 4100119) was added to one set of compound-containing cells and to 8 control wells (4 with ethanol and 4 with DMSO). The plate was preincubated for ˜80′ at 27°-28° C. Substrate (Z-DEVD-AFC, 490 μM, 40 μL) was then added to all wells. The plate was left at room temperature and fluorescence (360/40↑530/20↓) was measured at several time points (FL500 fluorimetric reader, Bio-tek instruments). Fluorescence at enzyme-containing wells was background-subtracted at each time point and initial rates were determined by linear regression (typically R^2>0.97). Percentage inhibition and activation was determined by relating the slope with compound to the control slope (with appropriate solvent). IC50 values are extrapolated.

[2] = HRV 14, Format 1, restores 50% of viral-caused decrease in cell viability

Structure (SMILES)	IC50 (HRV 14; [2]) [µM]	IC50 (HRV 14; HRV 14, Format 2)	IC50 (HRV 16; HRV 16, Format 2) [µM]	CC50 (Hl-Hela cells) [µM]	further results
O=C(c1ccccc1O)c1cc(Cl)ccc1O [compound 137]	0.6				IC50 (HRV 1A; Format 1): 6.2 µM
CC(=O)c1c(O)cccc1OCC(N)=O [SA#121, 2-(2-acetyl-3-hydroxyphenoxy)-acetamide]	189	120 ± 50 µM	420 ± 140		IC50 (HRV 1A; Format 1): 198 µM; CC50 [1]: 425 ± 8 µM
CC(=O)c1cc(Cl)ccc1O [compound 12]		150 µM and 290 µM	590 ± 300	> 2500	IC50 (HRV 16; HRV 16, Format 1): 137 µM; IC50 (HRV 1B; HRV 1B, Format 2): 305 ± 55 µM
CC(=O)c1c(O)c(Cl)cc(Cl)c1O [SA#109]		590 ± 320 µM			Activity (Apopain (caspase-3)): Inhibitor
CCC(=O)c1cc(O)ccc1O [compound 36]	27	32 ± 4 µM	44 ± 15	1720 ± 660	
O=C(c1ccccc1O)c1ccccc1O [compound 131]	0.6	10 µM and 10.5 µM	0.5 ± 0.4		IC50 (HRV 1A; Format 2): 43 ± 9 µM
O=c1cc(-c2ccccc2)oc2cc(O)cc(O)c12 [compound 83]		250 ± 90 µM			
O=C(CCc1ccccc1)c1ccccc1O [compound 42]		120 ± 40 µM			IC50 (HRV 1A; Format 2): 210 ± 70 µM; IC50 (HRV 1B; HRV 1B, Format 2): 29 ± 1 µM
CCOC(=O)c1c(O)cc(O)c(C(C)=O)c1O [SA#132]	17			29 ± 5	IC50 (HRV 1A; Format 1): 13 µM; IC50 (HRV 1B; HRV 1B, Format 1): 24 µM
CC(=O)c1c(O)cccc1O [compound 9]		110 ± 14 µM	200 ± 110		Activity (Apopain (caspase-3)): Activator
O=C(c1ccccc1O)c1cc(Br)ccc1O [compound 142]		59 ± 4 µM	27 ± 27		IC50 (HRV 1A; Format 2): 25 ± 12 µM
Cc1cc(O)c(C(=O)c2ccccc2O)cc1Cl [compound 144]		130 ± 40 µM	2.1 ± 1.6		
O=Cc1cc(I)cc(I)c1O [compound 47]		12 ± 2 µM			Activity (Apopain (caspase-3)): Activator
CC(=O)c1cccc(C#N)c1O [SA#51]					Activity (Apopain (caspase-3)): Inhibitor
O=c1cc(-c2ccccc2)oc2c(Cl)c(O)c(Cl)c(O)c12 [compound 100]		27 ± 25 µM			
Cc1ccc(O)c(C(=O)c2ccccc2O)c1 [compound 143]			8 ± 8		
CC(=O)c1ccc(O)cc1O [compound 7]			810 ± 180		
COc1ccc(C(=O)c2ccccc2O)c(O)c1 [compound 1]	16	23 ± 20 µM	165 ± 134	50 ± 10	
O=Cc1c(O)cc(O)cc1O [compound 34]	94			410 ± 30	
CC(=O)c1cc(F)ccc1O [compound 27]	444		47 ± 8		Activity (Apopain (caspase-3)): Inhibitor; CC50 [1]: > 1250 µM
CCCCCC(=O)c1c(O)c(Cl)c(OC)c(Cl)c1O [SA#15]		5 ± 1 µM	1.4 ± 0.8		Activity (Apopain (caspase-3)): Activator
CC(=O)c1cc(Cl)cc(Cl)c1O [compound 29]	4.8	6 ± 2 µM	6 ± 2	29 ± 8	IC50 (HRV 1A; Format 2): 19 ± 8 µM; IC50 (HRV 1B; HRV 1B, Format 2): 8 ± 5 µM

Structure (SMILES)	IC50 (HRV 14; [2]) [µM]	IC50 (HRV 14; HRV 14, Format 2)	IC50 (HRV 16; HRV 16, Format 2) [µM]	CC50 (Hl-Hela cells) [µM]	further results
CC(=O)c1cc(C)cc([N+](=O)[O-])c1O [compound 30]	55	31 ± 12 µM	29 ± 24		Activity (Apopain (caspase-3)): Inhibitor; CC50 [1]: 67 ± 8 µM
CCCCCC(=O)c1c(O)cc(O)c(Cl)c1OC [compound 125]	45			50 ± 5	IC50 (HRV 16; HRV 16, Format 1): 60 µM
CC(=O)c1cc(Br)ccc1O [compound 28]	6.2	91 ± 62 µM	159 ± 44	1230 ± 610	
O=C(CCc1ccccc1)c1cc(Cl)ccc1O [SA#43]					IC50 (HRV 14): 30 ± 20 µM; IC50 (HRV 16): 340 ± 70 µM; IC50 (HRV 1B): 40 ± 10 µM
O=Cc1cc([N+](=O)[O-])ccc1O [compound 46]		170 ± 100 µM			Activity (Apopain (caspase-3)): Inhibitor
CC(=O)c1cc(Cl)c(C)cc1O [compound 41]		160 ± 70 µM			
COC(=O)c1c(O)cc(C)cc1O [compound 147]			70 ± 50		
O=C(c1ccccc1)c1ccccc1O [compound 136]	6.3	13 ± 5 µM	6 ± 3	28 ± 2	
O=Cc1cc(Cl)cc(Cl)c1O [compound 33]		14 ± 3 µM	6 ± 1		IC50 (HRV 1A; Format 2): 9 ± 1 µM; Activity (Apopain (caspase-3)): Inhibitor; IC50 (HRV 1B; HRV 1B, Format 2): 4 ± 1 µM
CC(=O)c1ccccc1O [compound 6]		210 ± 170 µM			
CCCCCC(=O)c1cc(Cl)c(O)c(Cl)c1O [SA#116]	13	50 ± 7 µM	61 ± 37	24 ± 6	IC50 (HRV 16; HRV 16, Format 1): 21 µM
CCCCCC(=O)c1ccc(O)cc1O [compound 114]		40 ± 30 µM	70 ± 60		
CC(=O)c1cc(Cl)cc([N+](=O)[O-])c1O [compound 31]	14	11 ± 1 µM	35 ± 26	12 ± 1	IC50 (HRV 1A; Format 2): 80 ± 62 µM
COc1cc(O)c(C(C)=O)c(OC)c1 [compound 14]				780 ± 206	IC50 (HRV 16; HRV 16, Format 1): 225 µM
CC(=O)c1c(O)cc(O)cc1O [SA#110]	192				Activity (Apopain (caspase-3)): Inhibitor; IC50 (HRV 16; HRV 16, Format 1): 425 µM; CC50 [1]: 548 ± 27 µM
CC(=O)c1c(O)ccc2ccccc12 [compound 35]	62	42 ± 20 µM	38 ± 14	180 ± 10	IC50 (HRV 1A; Format 2): 630 ± 470 µM; IC50 (HRV 1B; HRV 1B, Format 2): 240 ± 140 µM
O=c1c(O)c(-c2ccc(O)cc2)oc2cc(O)cc(O)c12 [compound 90]		1.2 ± 0.5 µM	7 ± 4		IC50 (HRV 1A; Format 2): 5 ± 1 µM; IC50 (HRV 1B; HRV 1B, Format 2): 7 ± 4 µM
CCCCCC(=O)c1c(O)c(Cl)c(OC)c(Cl)c1OCC(N)=O [compound 118]	380			122 ± 6	IC50 (HRV 1A; Format 1): 81 µM
CC(=O)c1cc(Br)cc(Br)c1O [compound 38]	26	10 ± 2 µM	6 ± 2	59 ± 4	
CC(=O)c1cc(O)ccc1O [compound 8]		230 ± 170 µM	35 ± 7		IC50 (HRV 1A; Format 2): 141 ± 25 µM; Activity (Apopain (caspase-3)): Inhibitor; IC50 (HRV 1B; HRV 1B, Format 2): 33 ± 3 µM
CCCCCC(=O)c1c(OC)cc(O)c(Cl)c1O [SA#134]	63	122 ± 14 µM	13 ± 6	48 ± 6	IC50 (HRV 16; HRV 16, Format 1): 12 µM
O=C(CCc1ccc(O)cc1)c1c(O)cc(O)cc1O [compound 91]		9 ± 4 µM	50 ± 10		IC50 (HRV 1A; Format 2): 130 ± 14 µM; Activity (Apopain (caspase-3)): Inhibitor; IC50 (HRV 1B; HRV 1B, Format 2): 26 ± 15 µM
